According to US6518012B1, “Method for regulating the expression of MHC antigens and CD40 by inhibitors of histone deacetylation” (Health Research, Inc., priority 1999, dated 2003):

System: IAα mRNA
Assay: MHC class II (IAα) mRNA by RT-PCR and real-time PCR in mouse tumor models
Type: cell-based
Conditions: for fold increase in Ia (Iα): real-time PCR; for class II mRNA activation: titration with different concentrations of TSA for 12 hours, RT-PCR and real-time PCR
Method: To determine the effect of DAIs on HLA-DRα mRNA, cytoplasmic RNA was isolated from untreated and treated human trophoblast cell line JAR using standard techniques (RNeasy System from Qiagen). Standard PCR was performed using primers for DR and CIITA (Murphy et al., 1998, Reprod Dev., Chin et al., 1994, Immunity 1:687-697). Other primers used included human and mouse GAPDH (Clontech) and forward primer 5′-[…]-3′ (SEQ ID NO:25) and reverse primer 5′-[…]-3′ (SEQ ID NO:26) for mouse CIITA. PCR products were amplified with GOLD Taq for 10 min at 95° C., then 95° C. for 30 sec, 60° C. for 60 sec (25-45 cycles), then an extension at 60° C. for 10 min.
In order to obtain more quantitative information on fold changes in DR and CIITA after treatment with the deacetylase inhibitors, a real time fluorescence technique capable of quantitating low copy numbers of transcripts was carried out as follows. Oligonucleotide primers and TaqMan 5′-6-FAM and 3′-TAMRA-labeled probes were synthesized in the RPCI Biopolymer Facility. Primer and probe sequences are listed under Sequence Listing and also in FIG. 9. Sequences were designed using standard software (PrimerExpress software, PE Biosystems) except for human GAPDH.
Realtime PCR reactions contained TaqMan Universal PCR Master Mix (PE Biosystems), primers at 300 nM, and probes at optimal concentrations (150-225 nM depending on gene). Reactions were carried out on an ABI PRISM 7700 Sequence Detection System (PE Biosystems). Cycling conditions were 50° C. for 2 min, 95° C. for 10 min, then 60 cycles of 95° C. for 15 sec, 60° C. for 1 min. PCR samples were run in triplicate. The detection system and quantitative PCR was carried out as described by Williamson et al. (1995, Genet Res. 65:83-93). The threshold cycle number CT corresponded to the cycle number, at which the fluorescent emission reaches 10 standard deviations above the mean fluorescent emission, measured during the early ‘baseline’ cycles of the PCR. The CT values for triplicates were averaged and normalized to GAPDH levels. […] In such cases, in order to calculate a minimum fold change for other samples in the same group, the CT value was arbitrarily set at 40. […] Assuming reverse transcription efficiencies were approximately the same for each sample, relative amounts of mRNA using the comparative CT method. Fold changes in mRNA levels were calculated as 2^x where x=the difference between normalized CT values of the control and experimental samples.
To determine if the effect of DAIs on MHC class II was manifested in other tumors and in different species, the effect of TSA was tested on four commonly used mouse tumor models: the SaI fibrosarcoma, the Colon 26 adenocarcinoma, the J558 plasmacytoma and the P815 mastocytoma. TSA induced class II in all four mouse tumors examined, while the effects of IFNγ were variable (FIG. 4). Data presented for each cell line represents optimal incubation time and concentration of TSA and is compared with 100 U/ml of IFNγ at the same time point. Numbers over bars represents fold changes. […] Colon 26 and J558 that differed strikingly in their reactivity to IFNγ were selected for further evaluation. RT-PCR and real time PCR was used to examine induction of CIITA and IAα by TSA and IFNγ. A20, a constitutively positive B cell line was used as a positive control. The results are shown in FIGS. 5A-D. The numbers over bars represent fold changes. […] Since the classical IFNγ inducible genes IRF-1 and GBP as well as MHC class I mRNA were not induced by IFNγ in J558 (data not shown), this cell line may have a signaling defect in the IFNγ pathway. Unexpectedly however, and unlike either the MC or Colon 26 cells, TSA induced both CIITA (102-fold) and Iα (537-fold) in J558 as shown in FIGS. 5B and 5D.

| Compound | fold increase in Ia (Iα) (Colon 26) [fold] | Iα (class II) fold induction (J558, RT-PCR and real-time PCR (FIGS. 5B and 5D)) [fold] | class II mRNA activation (J558) | induction of class II mRNA (all four mouse tumors (SaI, Colon 26, J558, P815), optimal incubation time and concentration of TSA) | expression of class II (Colon 26, standard RT-PCR at 35 cycles) | induction of class II mRNA (J558, 100 U/ml IFNγ (FIG. 4)) | class II mRNA (P815, 100 U/ml IFNγ (FIG. 4)) | fold-increases in class II mRNA compared with TSA (SaI and Colon 26, 100 U/ml IFNγ) |
| --- | --- | --- | --- | --- | --- | --- | --- | --- |
| CC(/C=C/C(=O)NO)=C\[C@@H](C)C(=O)c1ccc(N(C)C)cc1 [TSA, Trichostatin A] | 74 | 537 | induced | induced |  |  |  |  |
| IFNγ: gamma-interferon, cytokine used as comparator at 100 U/ml | 58 |  | failed to activate |  | induced | failed to induce | only weakly enhanced | nearly equivalent fold-increases |
